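Step 1: Grow cells in 96-well plates. Step 2: Expose to compound for 48 hours at 5 concentrations. Step 3: Interpolate endpoints linearly; if unreached, use highest concentration. GI50: concentration for 50% inhibition of growth.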 The source made the active and inactive calls. Cut-off read from the data, not from the text of the source: active = GI50 up to about 1.1 µM and inactive = higher.

Some test systems named below: HOP-92; ACHN; OVCAR-5; SK-MEL-5; LOX IMVI; DU-145; IGROV-1; RXF 393; MCF7; HOP-62; SF-295; NCI-H522; NCI/ADR-RES; HCC 2998; OVCAR-4; SNB-19; M14; NCI-H23; SW-620; OVCAR-3.
Common to all, as to experiment: DTP human tumour cell line panel, 48 h

Turning to `O=C1c2cccc3cc([N+](=O)[O-])cc(c23)C(=O)N1c1ccc(OCCN2CCCC2)cc1`, the GI50 was 24.3 µM (inactive) with HOP-92; 10 µM (inactive) with ACHN; 19.4 µM (inactive) with OVCAR-5; 13.9 µM (inactive) in the experiment with SK-MEL-5; 10.8 µM (inactive) in the experiment on LOX IMVI; 23.3 µM (inactive) with DU-145. The GI50 in the experiment on IGROV-1 was 12.3 µM (inactive); in the experiment with RXF 393, 17.9 µM (inactive); with MCF7, 7.94 µM (inactive); in the experiment on HOP-62, 30.5 µM (inactive); in the experiment with SF-295, 20.8 µM (inactive); in the experiment on NCI-H522, 10.8 µM (inactive). For the same molecule, the GI50 with NCI/ADR-RES is 32.5 µM (inactive); in the experiment with HCC 2998, 17.1 µM (inactive); in the experiment on OVCAR-4, 28.1 µM (inactive); with SNB-19 it was 26.1 µM (inactive); with M14, 20 µM (inactive); in the experiment with NCI-H23 it was 17.6 µM (inactive). In addition, the GI50 in the experiment on SW-620 is 17.2 µM (inactive).
For `O=C(N[C@@H](c1ccccc1)[C@@H](O)C(=O)OCc1ccc([N+](=O)[O-])cc1)c1ccccc1`, the GI50 in the experiment with HOP-92 is > 100 µM (inactive); with ACHN, > 100 µM (inactive); in the experiment on OVCAR-5, > 100 µM (inactive); in the experiment with SK-MEL-5, 75.9 µM (inactive); in the experiment on LOX IMVI it was > 100 µM (inactive); in the experiment on DU-145, > 100 µM (inactive). For the same molecule, the GI50 with IGROV-1 was > 100 µM (inactive); in the experiment with OVCAR-3 it was > 100 µM (inactive); with RXF 393, > 100 µM (inactive); with MCF7 it was 84.5 µM (inactive); in the experiment with HOP-62 it was > 100 µM (inactive); in the experiment on SF-295, > 10 µM (inactive). Further, the GI50 with NCI-H522, with NCI/ADR-RES, in the experiment with HCC 2998, with OVCAR-4, in the experiment with SNB-19 and with NCI-H23 was > 100 µM (inactive) in each case. The GI50 in the experiment on SW-620 was > 100 µM (inactive).
For the molecule `CC(=O)c1c2c(cc3c1CC1(C3)Cc3cc4c(c(C(=O)O)c3C1)CCCC4)CCCC2.CC(N)c1ccccc1` (configuration not stated), the GI50 is 15.4 µM (inactive) with HOP-92; 28.8 µM (inactive) in the experiment with ACHN; 28.5 µM (inactive) in the experiment with OVCAR-5; 22.9 µM (inactive) in the experiment on SK-MEL-5; 35.5 µM (inactive) with LOX IMVI; 49 µM (inactive) with DU-145. In addition, the GI50 in the experiment with IGROV-1 was 34.8 µM (inactive); with OVCAR-3, 23.6 µM (inactive); in the experiment on MCF7 it was 29.1 µM (inactive); with HOP-62 it was 21.6 µM (inactive); with SF-295, 33.7 µM (inactive); with NCI-H522, 46.1 µM (inactive). Also, the GI50 with NCI/ADR-RES is 40.1 µM (inactive); with HCC 2998, 34.5 µM (inactive); in the experiment on OVCAR-4 it was 37 µM (inactive); with SNB-19, 46.5 µM (inactive); in the experiment on M14, 28.8 µM (inactive); with NCI-H23 it was 42 µM (inactive). For the same molecule, the GI50 in the experiment with SW-620 was 45.4 µM (inactive).
For the molecule `COc1cc(/C=C/C2=NN(c3cccc(S(=O)(=O)O)c3)C3(C2)SCC(=O)N3c2nc3ccccc3s2)cc(OC)c1OC` (configuration not stated), the GI50 in the experiment with HOP-92 was > 100 µM (inactive); with ACHN it was 64.3 µM (inactive); in the experiment on OVCAR-5 it was > 100 µM (inactive); with SK-MEL-5, 74.1 µM (inactive); with LOX IMVI it was 20.4 µM (inactive); in the experiment on DU-145 it was 29.4 µM (inactive). The GI50 in the experiment with IGROV-1 is 43.2 µM (inactive); in the experiment with RXF 393, 56.4 µM (inactive); in the experiment on MCF7 it was 36.9 µM (inactive); with NCI-H522 it was 18 µM (inactive); with NCI/ADR-RES, 42.7 µM (inactive); in the experiment on HCC 2998, > 100 µM (inactive). In addition, the GI50 with OVCAR-4 is 78.7 µM (inactive); in the experiment with SNB-19, 31.9 µM (inactive); in the experiment with M14, 74.8 µM (inactive); in the experiment with NCI-H23, 69.3 µM (inactive); in the experiment on SW-620 it was 61.7 µM (inactive).
In the case of `CC(=O)OCC1OC(n2c3c(cc(C#N)c2=O)CCCCCC3)C(OC(C)=O)C(OC(C)=O)C1OC(C)=O` (configuration not stated), the GI50 with HOP-92, in the experiment on ACHN, in the experiment on OVCAR-5, in the experiment on SK-MEL-5, in the experiment on LOX IMVI and in the experiment with DU-145 was > 100 µM (inactive) throughout. The GI50 in the experiment with IGROV-1, with OVCAR-3, in the experiment on RXF 393, in the experiment with MCF7, with HOP-62 and in the experiment with SF-295 was > 100 µM (inactive) each time. In addition, the GI50 with NCI-H522, in the experiment with NCI/ADR-RES, with HCC 2998, in the experiment on OVCAR-4, in the experiment with SNB-19 and with M14 was > 100 µM (inactive) each time. Moreover, in the experiment with NCI-H23, the GI50 is > 100 µM (inactive).
`CC/C=C/C(/C=C/C[C@]1(CC)C[C@H](CC)[C@H](CC(=O)O)OO1)CC` (some centres not stated): the GI50 was 1.99 µM (inactive) in the experiment with HOP-92; 1.91 µM (inactive) with ACHN; 2.34 µM (inactive) in the experiment with OVCAR-5; 2.85 µM (inactive) with SK-MEL-5; 0.33 µM (active) in the experiment with LOX IMVI; 1.85 µM (inactive) in the experiment on DU-145. Moreover, the GI50 in the experiment on IGROV-1 is 0.353 µM (active); in the experiment with OVCAR-3, 2 µM (inactive); in the experiment with RXF 393 it was 2.19 µM (inactive); in the experiment on MCF7 it was 2.51 µM (inactive); with HOP-62, 1.58 µM (inactive); in the experiment with SF-295, 2.16 µM (inactive). Further, the GI50 in the experiment on NCI-H522 is 1.75 µM (inactive); in the experiment with NCI/ADR-RES it was 2.1 µM (inactive); in the experiment on OVCAR-4 it was 1.52 µM (inactive); with SNB-19, 5.69 µM (inactive); in the experiment on M14, 8.49 µM (inactive); in the experiment on NCI-H23 it was 2.24 µM (inactive). Besides, the GI50 with SW-620 was 2.12 µM (inactive).
With `C=C(C)CCC1C=[N+]([O-])OC(C)(C)C1(C)C` (configuration not stated), the GI50 in the experiment on HOP-92 is > 100 µM (inactive); with ACHN it was > 100 µM (inactive); with OVCAR-5 it was > 100 µM (inactive); in the experiment with SK-MEL-5 it was > 100 µM (inactive); with LOX IMVI, 80 µM (inactive); in the experiment on DU-145 it was > 100 µM (inactive). Also, the GI50 with IGROV-1 is > 100 µM (inactive); in the experiment with OVCAR-3, > 100 µM (inactive); with RXF 393 it was > 100 µM (inactive); in the experiment with MCF7, 73.5 µM (inactive); in the experiment on HOP-62 it was > 100 µM (inactive); in the experiment with SF-295, > 100 µM (inactive). Besides, the GI50 in the experiment on NCI-H522 was > 100 µM (inactive); with NCI/ADR-RES, > 100 µM (inactive); in the experiment on HCC 2998, > 100 µM (inactive); in the experiment with M14, > 100 µM (inactive); with SW-620 it was 39 µM (inactive).
Take `NC(=O)c1cc2ccccc2o/c1=N/O`: the GI50 in the experiment on HOP-92 is > 100 µM (inactive); with ACHN, > 100 µM (inactive); with SK-MEL-5 it was > 100 µM (inactive); with LOX IMVI, > 100 µM (inactive); with DU-145, > 100 µM (inactive); in the experiment with IGROV-1, 66.1 µM (inactive). Further, the GI50 with OVCAR-3 was > 100 µM (inactive); in the experiment on RXF 393 it was > 100 µM (inactive); in the experiment on MCF7 it was 29.2 µM (inactive); with HOP-62, > 100 µM (inactive); with SF-295, > 100 µM (inactive); with NCI-H522, 61.4 µM (inactive). Besides, the GI50 with NCI/ADR-RES, in the experiment on HCC 2998, in the experiment with SNB-19, in the experiment with M14, with NCI-H23 and with SW-620 was > 100 µM (inactive) in each case.
With `CC(=O)N1N=C(c2ccc3ccccc3c2O)CC1C(=O)c1ccco1` (configuration not stated), the GI50 is 16.6 µM (inactive) with HOP-92; 19.2 µM (inactive) with ACHN; 28.6 µM (inactive) in the experiment with OVCAR-5; 25 µM (inactive) in the experiment with SK-MEL-5; 47.9 µM (inactive) with DU-145; 12.7 µM (inactive) in the experiment with IGROV-1. Besides, the GI50 is 20.3 µM (inactive) in the experiment with OVCAR-3; 32.4 µM (inactive) in the experiment on RXF 393; 21.4 µM (inactive) with MCF7; 30.6 µM (inactive) in the experiment on HOP-62; 24 µM (inactive) with SF-295; 17.9 µM (inactive) in the experiment on NCI-H522. The GI50 with NCI/ADR-RES is 18.1 µM (inactive); in the experiment with HCC 2998 it was 16.3 µM (inactive); in the experiment on OVCAR-4 it was 17.5 µM (inactive); in the experiment with M14, 19.3 µM (inactive); in the experiment on NCI-H23 it was 27.9 µM (inactive); in the experiment with SW-620 it was 33.3 µM (inactive).
In the case of `CCOP(=O)(OCC)/C(C#N)=C/c1cccn1C(C)C`, the GI50 in the experiment with HOP-92, in the experiment with ACHN, with OVCAR-5, in the experiment on SK-MEL-5, in the experiment on LOX IMVI and in the experiment on DU-145 was > 100 µM (inactive) in each case. Further, the GI50 in the experiment on IGROV-1 was > 100 µM (inactive); in the experiment on OVCAR-3, > 100 µM (inactive); in the experiment with RXF 393, > 100 µM (inactive); in the experiment on MCF7, > 10 µM (inactive); in the experiment on HOP-62 it was > 100 µM (inactive); with SF-295, > 100 µM (inactive). The GI50 with NCI-H522, with NCI/ADR-RES, with HCC 2998, with SNB-19, in the experiment on M14 and in the experiment with NCI-H23 was > 100 µM (inactive) each time. For the same molecule, the GI50 in the experiment on SW-620 was > 100 µM (inactive).
Turning to `c1ccc(CN2C3C4N(Cc5ccccc5)C2C2N(Cc5ccccc5)C(C(N2Cc2ccccc2)N4Cc2ccccc2)N3Cc2ccccc2)cc1`, the GI50 with HOP-92, in the experiment with ACHN, in the experiment with OVCAR-5, with SK-MEL-5, in the experiment on LOX IMVI and in the experiment on DU-145 was > 100 µM (inactive) each time. The GI50 in the experiment with IGROV-1, with OVCAR-3, in the experiment with RXF 393, with MCF7, in the experiment on HOP-62 and in the experiment on SF-295 was > 100 µM (inactive) each time. Further, the GI50 in the experiment with NCI-H522, with NCI/ADR-RES, with HCC 2998, with M14, in the experiment with NCI-H23 and in the experiment with SW-620 was > 100 µM (inactive) each time.

Values taken from ChEMBL document CHEMBL1201862, “PubChem BioAssay data set” (2004).
